ChEMBL document CHEMBL4613210, “Tacrines for Alzheimer's disease therapy. III. The PyridoTacrines” (Eur J Med Chem, 2019)
pIC50: −log10 of the molar value.

What was measured:
Acetylcholinesterase [1] = target: Acetylcholinesterase (Electrophorus electricus, UniProt O42275)
Description: Inhibition of electric eel AChE

[2] = target: Voltage-gated calcium channel
Description: Inhibition of VGCC (unknown origin)

Acetylcholinesterase [3] = target: T1, Acetylcholinesterase (Bos taurus, UniProt P23795); assay: Inhibition of bovine erythrocytes AChE using acetylthiocholine iodide as substrate by Ellman's methods
T1 sequence (P23795 whole entry): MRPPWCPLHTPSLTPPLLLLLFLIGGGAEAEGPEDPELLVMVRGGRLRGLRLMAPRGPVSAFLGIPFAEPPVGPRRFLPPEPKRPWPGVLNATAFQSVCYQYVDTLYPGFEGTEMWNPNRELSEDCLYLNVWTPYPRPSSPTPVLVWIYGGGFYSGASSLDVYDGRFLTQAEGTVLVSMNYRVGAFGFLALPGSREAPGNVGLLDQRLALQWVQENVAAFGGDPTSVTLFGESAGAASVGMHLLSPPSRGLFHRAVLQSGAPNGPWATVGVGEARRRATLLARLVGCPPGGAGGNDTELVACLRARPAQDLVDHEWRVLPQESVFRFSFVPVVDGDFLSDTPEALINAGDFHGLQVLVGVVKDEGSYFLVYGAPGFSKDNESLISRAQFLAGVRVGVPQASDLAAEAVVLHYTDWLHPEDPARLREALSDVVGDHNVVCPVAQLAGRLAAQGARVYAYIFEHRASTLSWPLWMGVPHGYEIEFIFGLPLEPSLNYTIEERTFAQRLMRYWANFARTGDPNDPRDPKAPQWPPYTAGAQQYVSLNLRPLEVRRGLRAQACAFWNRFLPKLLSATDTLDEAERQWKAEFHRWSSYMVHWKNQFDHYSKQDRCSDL

Cholinesterase [4] = target: T2, Cholinesterase (Homo sapiens, UniProt P06276)
T2 sequence (P06276 whole entry): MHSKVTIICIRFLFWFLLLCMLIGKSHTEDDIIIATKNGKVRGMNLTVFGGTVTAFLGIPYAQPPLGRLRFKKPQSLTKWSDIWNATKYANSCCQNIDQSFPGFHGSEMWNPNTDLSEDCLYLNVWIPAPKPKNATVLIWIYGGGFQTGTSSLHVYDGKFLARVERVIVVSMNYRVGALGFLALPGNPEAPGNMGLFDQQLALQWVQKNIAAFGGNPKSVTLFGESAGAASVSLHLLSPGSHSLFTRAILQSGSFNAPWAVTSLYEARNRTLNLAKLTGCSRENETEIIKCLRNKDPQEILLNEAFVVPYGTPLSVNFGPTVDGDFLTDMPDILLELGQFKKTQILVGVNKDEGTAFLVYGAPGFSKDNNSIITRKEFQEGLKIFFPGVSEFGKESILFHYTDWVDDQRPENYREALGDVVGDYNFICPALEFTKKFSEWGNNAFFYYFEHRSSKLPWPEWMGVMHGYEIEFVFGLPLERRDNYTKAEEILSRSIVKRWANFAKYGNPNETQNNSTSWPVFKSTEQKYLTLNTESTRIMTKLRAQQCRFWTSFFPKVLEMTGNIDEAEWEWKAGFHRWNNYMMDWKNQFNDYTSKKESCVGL
Description: Inhibition of human serum BuChE using butyrylthiocholine iodide as substrate by Ellman's methods

Cholinesterase [5] = target: T2, Cholinesterase; remark: listed apart in the source
Description: Inhibition of BuChE (unknown origin)

Acetylcholinesterase [6] = target: Acetylcholinesterase (Homo sapiens, UniProt P22303); assay: Inhibition of human AChE
Sequence of Acetylcholinesterase (Homo sapiens, UniProt P22303) (P22303 whole entry): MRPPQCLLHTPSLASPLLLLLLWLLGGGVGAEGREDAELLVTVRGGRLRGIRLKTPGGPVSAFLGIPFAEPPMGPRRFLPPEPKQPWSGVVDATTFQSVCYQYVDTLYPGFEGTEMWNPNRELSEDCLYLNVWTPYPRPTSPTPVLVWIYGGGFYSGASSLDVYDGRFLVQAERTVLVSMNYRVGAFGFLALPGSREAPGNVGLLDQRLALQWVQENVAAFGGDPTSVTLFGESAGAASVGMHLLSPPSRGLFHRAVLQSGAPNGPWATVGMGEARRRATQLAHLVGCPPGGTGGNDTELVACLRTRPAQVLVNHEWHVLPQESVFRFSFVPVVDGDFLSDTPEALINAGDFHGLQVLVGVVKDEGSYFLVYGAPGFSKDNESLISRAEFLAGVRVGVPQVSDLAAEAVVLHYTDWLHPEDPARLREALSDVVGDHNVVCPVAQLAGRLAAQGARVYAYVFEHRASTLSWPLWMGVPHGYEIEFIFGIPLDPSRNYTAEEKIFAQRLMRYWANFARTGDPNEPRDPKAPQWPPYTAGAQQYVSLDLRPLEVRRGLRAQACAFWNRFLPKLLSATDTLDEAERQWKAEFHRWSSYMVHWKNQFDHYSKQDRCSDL

Cholinesterase [7] = target: T2, Cholinesterase; assay: Inhibition of human BuChE

Sequence of Acetylcholinesterase (Electrophorus electricus, UniProt O42275) (O42275 whole entry): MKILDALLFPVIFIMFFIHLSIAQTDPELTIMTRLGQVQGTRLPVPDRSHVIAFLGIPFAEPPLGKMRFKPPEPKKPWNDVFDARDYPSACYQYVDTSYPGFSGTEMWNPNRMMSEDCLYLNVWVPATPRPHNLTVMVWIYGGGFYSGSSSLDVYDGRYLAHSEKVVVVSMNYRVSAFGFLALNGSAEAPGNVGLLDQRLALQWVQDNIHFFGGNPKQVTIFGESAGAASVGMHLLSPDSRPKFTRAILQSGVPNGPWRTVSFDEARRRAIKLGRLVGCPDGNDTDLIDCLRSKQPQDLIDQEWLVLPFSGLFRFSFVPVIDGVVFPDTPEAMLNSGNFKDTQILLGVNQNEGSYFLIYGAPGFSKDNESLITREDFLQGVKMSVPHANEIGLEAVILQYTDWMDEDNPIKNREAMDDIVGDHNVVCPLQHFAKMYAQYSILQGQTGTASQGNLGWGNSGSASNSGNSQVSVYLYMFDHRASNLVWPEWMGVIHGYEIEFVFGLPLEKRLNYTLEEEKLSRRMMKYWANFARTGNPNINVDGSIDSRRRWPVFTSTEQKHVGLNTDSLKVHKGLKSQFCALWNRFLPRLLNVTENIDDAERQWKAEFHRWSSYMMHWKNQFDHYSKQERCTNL

SMILES | pIC50 (Acetylcholinesterase [1]) | pIC50 [2] | other results
CCOC(=O)c1c(C)nc2nc3c(c(N)c2c1-c1ccc(C)cc1)CCCCC3 | 4.89 | 4.62 | 
CCOC(=O)c1c(C)nc2nc3c(c(N)c2c1-c1ccccc1OC)CCCCC3 | 4.66 | 4.77 | 
CCOC(=O)c1c(C)nc2nc3c(c(N)c2c1-c1ccc(Cl)cc1)CCCCC3 | 4.72 | 4.57 | 
CCOC(=O)c1c(C)nc2nc3c(c(N)c2c1-c1ccccc1)CCCCCC3 | 4.77 | 5.00 | 
CCOC(=O)c1c(C)nc2nc3c(c(N)c2c1-c1ccc(OC)cc1)CCCCCC3 | 4.77 | 4.70 | 
CCOC(=O)c1c(C)nc2nc3c(c(N)c2c1-c1ccc(OC)cc1)CCCCC3 |  |  | pIC50 (Acetylcholinesterase [3]; read-out: IC50): 5.89; pIC50 (Cholinesterase [4]): 4.09
CCOC(=O)c1c(C)nc2nc3c(c(N)c2c1-c1ccc(OC)c(OC)c1)CCCC3 | 5.89 | 4.59 | 
CCOC(=O)c1c(C)nc2nc3c(c(N)c2c1-c1ccc(F)cc1)CCCC3 | 6.15 | 4.42 | pIC50 (Cholinesterase [5]): 4.92
CCOC(=O)c1c(C)nc2nc3c(c(N)c2c1-c1ccc(F)cc1)CCCCC3 | 5.27 | 4.77 | 
CCOC(=O)c1c(C)nc2nc3c(c(N)c2c1-c1ccc(Cl)cc1)CCCC3 | 5.89 | 4.47 | pIC50 (Cholinesterase [5]): 4.28
CCOC(=O)c1c(C)nc2nc3c(c(N)c2c1-c1ccc(OC)c(OC)c1)CCCCC3 | 5.19 | 5.05 | 
Cc1nc2nc3c(c(N)c2c(-c2ccccc2)c1C(=O)OC(C)C)CCCC3 | 5.92 | 5.00 | pIC50 (Cholinesterase [5]): 4.92
CCOC(=O)c1c(C)nc2nc3c(c(N)c2c1-c1ccccc1)CCCC3 |  | 4.70 | pIC50 (Acetylcholinesterase [3]): 6.09; pIC50 (Cholinesterase [4]): 5.30; pIC50 (Cholinesterase [5]): 5.30
CCOC(=O)c1c(C)nc2nc3c(c(N)c2c1-c1ccccc1)CCCCC3 |  |  | pIC50 (Acetylcholinesterase [3]): 4.68
CCOC(=O)c1c(C)nc2nc3c(c(N)c2c1-c1ccc(OC)cc1)CCCC3 |  |  | pIC50 (Acetylcholinesterase [3]): 5.05
CCOC(=O)c1c(C)nc2nc3c(c(N)c2c1-c1ccccc1)CCC3 |  |  | pIC50 (Acetylcholinesterase [3]): 4.92
CCOC(=O)c1c(C)nc2nc3c(c(N)c2c1-c1ccc(OC)cc1)CCC3 |  |  | pIC50 (Acetylcholinesterase [3]; read-out: IC50): 4.85
CCOC(=O)c1c(C)nc2nc3c(c(N)c2c1-c1cccc(OC)c1)CCCC3 | 5.92 | 4.82 | pIC50 (Cholinesterase [5]): 4.51
CCOC(=O)c1c(C)nc2nc3c(c(N)c2c1-c1cccc([N+](=O)[O-])c1)CCCC3 | 6.05 | 4.74 | pIC50 (Cholinesterase [5]): 4.68
CCOC(=O)c1c(C)nc2nc3c(c(N)c2c1-c1ccc([N+](=O)[O-])cc1)CCCCC3 | 4.85 | 4.89 | 
CCOC(=O)c1c(C)nc2nc3c(c(N)c2c1-c1cccc(OC)c1)CCCCC3 |  | 5.05 | 
COc1ccc(C2c3c(nc4c(c3N)CCCC4)Oc3ccc4ccccc4c32)cc1OC (racemic) |  |  | pIC50 (Acetylcholinesterase [6]): 7.08
COc1cc(C2c3ccc(O)cc3Oc3nc4c(c(N)c32)CCCC4)cc(OC)c1OC (racemic) |  |  | pIC50 (Acetylcholinesterase [3]; read-out: IC50): 7.39
CCOC(=O)C1=C(C)Oc2nc3c(c(N)c2C1c1ccc(OC)cc1)CCCC3 (racemic) |  |  | pIC50 (Cholinesterase [7]): 5.21; pIC50 (Acetylcholinesterase [3]; read-out: IC50): 6.06; pIC50 (Cholinesterase [4]): 5.21
